The source made the active and inactive calls. The calls are words filed in the database; no cut-off is given here.
What was measured:
[1] = biological target: Angiotensin-converting enzyme 2 (Homo sapiens) (UniProt Q9BYF1); assay: Inhibition of ACE2 (unknown origin) upto 100 ug/ml incubated for 15 mins followed by substrate addition by fluorescence based analysis; conditions: dose microg/ml <=100, time 15.0 min
Staphylococcus aureus = assay: Antibacterial activity against Staphylococcus aureus ATCC 29213 assessed as inhibition of bacterial growth incubated for 18 hrs by Kirby-Bauer disk diffusion method; type: functional
Bacillus subtilis = assay: Antibacterial activity against Bacillus subtilis ATCC 6633 assessed as inhibition of bacterial growth incubated for 18 hrs by Kirby-Bauer disk diffusion method; type: functional
Escherichia coli = assay: Antibacterial activity against Escherichia coli ATCC 35218 assessed as inhibition of bacterial growth incubated for 18 hrs by Kirby-Bauer disk diffusion method; type: functional
Pseudomonas aeruginosa = assay: Antibacterial activity against Pseudomonas aeruginosa ATCC 27853 assessed as inhibition of bacterial growth incubated for 18 hrs by Kirby-Bauer disk diffusion method; type: functional
MCF7 = assay: Cytotoxicity against human MCF7 cells assessed as reduction in cell viability by MTT assay; type: functional, cell-based
A549 = assay: Cytotoxicity against human A549 cells assessed as reduction in cell viability by MTT assay; type: functional, cell-based
HCT-116 = assay: Cytotoxicity against human HCT-116 cells assessed as reduction in cell viability by MTT assay; type: functional, cell-based
HepG2 = assay: Cytotoxicity against human HepG2 cells assessed as reduction in cell viability by MTT assay; type: functional, cell-based
[2] = Binding affinity to Fe3+ assessed as formation of Fe3+-compound complex at 5 to 640 uM in presence of FeCl3 incubated for 3 hrs by Chrome Azurol S assay; conditions: dose 5-640 µM
[3] = Binding affinity to Fe3+ assessed as formation of Fe3+-compound complex coordinate ratio of 1:1 measured under neutral pH by UV-visible spectrophotometric titration analysis

Angiotensin-converting enzyme 2 (Homo sapiens), sequence (Q9BYF1 18-805 limits assumed): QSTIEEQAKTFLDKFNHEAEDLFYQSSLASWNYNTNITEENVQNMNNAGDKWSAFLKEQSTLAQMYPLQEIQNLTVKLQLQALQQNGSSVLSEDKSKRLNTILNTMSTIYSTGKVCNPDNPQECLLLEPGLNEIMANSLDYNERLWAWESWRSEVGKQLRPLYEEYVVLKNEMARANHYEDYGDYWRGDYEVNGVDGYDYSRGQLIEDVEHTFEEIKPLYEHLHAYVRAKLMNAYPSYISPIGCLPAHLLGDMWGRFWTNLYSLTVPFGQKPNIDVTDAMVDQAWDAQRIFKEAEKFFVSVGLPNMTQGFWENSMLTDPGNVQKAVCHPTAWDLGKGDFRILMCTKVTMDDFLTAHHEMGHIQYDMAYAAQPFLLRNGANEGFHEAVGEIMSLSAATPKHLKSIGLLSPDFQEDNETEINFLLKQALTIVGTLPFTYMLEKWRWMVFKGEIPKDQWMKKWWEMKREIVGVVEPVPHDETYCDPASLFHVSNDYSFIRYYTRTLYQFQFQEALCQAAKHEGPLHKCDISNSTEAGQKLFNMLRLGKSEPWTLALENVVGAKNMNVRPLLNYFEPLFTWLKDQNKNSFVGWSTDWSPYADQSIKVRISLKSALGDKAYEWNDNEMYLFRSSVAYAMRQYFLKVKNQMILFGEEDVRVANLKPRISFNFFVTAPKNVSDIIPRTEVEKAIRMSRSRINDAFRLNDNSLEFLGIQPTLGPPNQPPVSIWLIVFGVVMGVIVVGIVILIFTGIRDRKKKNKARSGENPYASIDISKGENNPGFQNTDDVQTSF

SMILES	inhibition [1]	MIC (Staphylococcus aureus)	MIC (Bacillus subtilis)	MIC (Escherichia coli)	MIC (Pseudomonas aeruginosa)	Activity [2]	Activity [3]	IC50 (MCF7)	IC50 (A549)	IC50 (HCT-116)	IC50 (HepG2)
COc1cccc2c1C(=O)c1c(O)c3c(c(O)c1C2=O)C[C@@](O)(C(=O)CO)C[C@@H]3O[C@H]1C[C@H](N)[C@H](O)[C@H](C)O1 [DOXORUBICIN]									0.9 µM	1.1 µM	1.3 µM
CC(=O)N(O)CCCCCNC(=O)CCC(=O)N(O)CCCCCNC(=O)CCC(=O)N(O)CCCCCN						Active					
CC(C)CCCCCCCCCC(=O)N[C@@H](CCCN(O)C=O)C(=O)N[C@@H](CO)C(=O)N(O)CCC[C@@H]1NC(=O)[C@H](CCCN(O)C=O)NC1=O	inactive	> 100 µM	> 100 µM	> 100 µM	> 100 µM	Active	Active	> 20 µM	> 20 µM	> 20 µM	7.7 µM
CC(C)CCCCCCCCCCCC(=O)N[C@@H](CCCN(O)C=O)C(=O)N[C@@H](CO)C(=O)N(O)CCC[C@@H]1NC(=O)[C@H](CCCN(O)C=O)NC1=O	inactive	> 100 µM	> 100 µM	> 100 µM	> 100 µM	Active		> 20 µM	8.1 µM	> 20 µM	2.3 µM
CCCCCCCCCCCCC(=O)N[C@@H](CCCN(O)C=O)C(=O)N[C@@H](CO)C(=O)N(O)CCC[C@@H]1NC(=O)[C@H](CCCN(O)C=O)NC1=O	inactive	> 100 µM	> 100 µM	> 100 µM	> 100 µM	Active		> 20 µM	3.4 µM	10 µM	10 µM
CCCCCCCCCCCCCC(=O)N[C@@H](CCCN(O)C=O)C(=O)N[C@@H](CO)C(=O)N(O)CCC[C@@H]1NC(=O)[C@H](CCCN(O)C=O)NC1=O	inactive	> 100 µM	> 100 µM	> 100 µM	> 100 µM			> 20 µM	> 20 µM	> 20 µM	> 20 µM
CC(C)CCCCCCCCCCC(=O)N[C@@H](CCCN(O)C=O)C(=O)N[C@@H](CO)C(=O)N(O)CCC[C@@H]1NC(=O)[C@H](CCCN(O)C=O)NC1=O	inactive	> 100 µM	> 100 µM	> 100 µM	> 100 µM	Active		> 20 µM	14 µM	> 20 µM	> 20 µM

The next lines start with results.

inhibition [1]	MIC (Staphylococcus aureus)	MIC (Bacillus subtilis)	MIC (Escherichia coli)	MIC (Pseudomonas aeruginosa)	Activity [2]	Activity [3]	SMILES	IC50 (MCF7)	IC50 (A549)	IC50 (HCT-116)	IC50 (HepG2)
inactive	> 100 µM	> 100 µM	> 100 µM	> 100 µM			CC(C)CCCCCCCCC(=O)N[C@@H](CCCN(O)C=O)C(=O)N[C@@H](CO)C(=O)N(O)CCC[C@@H]1NC(=O)[C@H](CCCN(O)C=O)NC1=O	> 20 µM	13 µM	9.7 µM	> 20 µM
inactive	> 100 µM	> 100 µM	> 100 µM	> 100 µM			CCCCCCCCCCCCCCC(=O)N[C@@H](CCCN(O)C=O)C(=O)N[C@@H](CO)C(=O)N(O)CCC[C@@H]1NC(=O)[C@H](CCCN(O)C=O)NC1=O	5.9 µM	3.3 µM	4.8 µM	4.3 µM
inactive	> 100 µM	> 100 µM	> 100 µM	> 100 µM	Active		CCCCCCCCCCCC(=O)N[C@@H](CCCN(O)C=O)C(=O)N[C@@H](CO)C(=O)N(O)CCC[C@@H]1NC(=O)[C@H](CCCN(O)C=O)NC1=O	17 µM	11 µM	11 µM	> 20 µM

Source: ChEMBL document CHEMBL4840317, “Saccharochelins A-H, Cytotoxic Amphiphilic Siderophores from the Rare Marine Actinomycete Saccharothrix sp. D09” (J Nat Prod, 2021)
